Measured values reported in article PMC10299677, “Fluorinated Benzofuran and Dihydrobenzofuran as Anti-Inflammatory and Potential Anticancer Agents” (International Journal of Molecular Sciences, 2023).
“Also recorded” adds a separate entry of the source.

Experiments:
Type in all cases: cell-based, C57BL/6J mice
CCL2 = CCL2 release in LPS-treated macrophages (BMDM); conditions: for effect on CCL2 secretion: 10 µM for compound 1, 50 µM for others, LPS 24 h; for IC50: Mus musculus, Macrophage, compounds 30 min prior to 10 ng/mL LPS for 24 h
Method: (§1) C57BL/6J (10–15 weeks old) male mice were obtained from the animal care facility at the American University of Beirut. All animal procedures were performed following the recommendations of the IACUC (Institutional Animal Care and Use Committee approval 16-09-M379). BMDMs were prepared and characterized as described previously by our group. BMDMs were isolated from C57BL/6J mice by flushing the femur and tibia with RPMI-1640 culture media (Sigma-Aldrich R7388), and cells were collected and centrifuged at 300× g for 5 min. The supernatant was discarded, and the pellet was resuspended in 2 mL red blood lysis 10% (Sigma-Aldrich R7767) medium in PBS and incubated for 5 min at room temperature. After diluting the suspension of cells with 5 mL of RPMI containing 10% FBS and 1% penicillin–streptomycin, cells were centrifuged at 300× g for 5 min, and the cell pellet was resuspended in RPMI media containing 10% FBS supplemented with 15% L929-conditioned medium containing macrophage-colony stimulating factor (M-CSF1) and plated on […]. Cells were allowed to proliferate and differentiate for 5–6 days. Cells were harvested, washed, and allowed to adhere overnight in RPMI containing 10% FBS for treatment. Cells were previously characterized by flow cytometry as macrophages using this method. […] Cells were plated at 0.8 × 10^6 cells per 3.8 cm^2 well [27].
(§2) BMDMs were then treated with different concentrations of the benzofuran and dihydrobenzofuran derivatives for 30 min prior to the addition of 10 ng/mL LPS for 24 h. […] The supernatants were assessed for IL-6, PGE2, CCL2, and nitrite, the stable derivative of NO, as described previously.
(§3) IL-6, CCL2, nitrite (for NO), and PGE2 concentrations from 3–5 independent experiments were expressed as percentage of LPS alone and as mean ± SEM. COX activity was determined as percentage of PGE2 produced from exogenous arachidonic acid. Curve fitting and calculation of IC50 values were performed using GraphPad Prism (version 9.5.1 Software, La Jolla, CA, USA).

NOS2 protein expression = NOS2 protein expression in LPS-treated macrophages (Western blot); conditions: 50 µM, LPS 24 h
Method: Figure 4 Effects of the fluorinated benzofuran and dihydrobenzofuran on COX-2 and NOS2 protein expressions. COX-2 and NOS2 protein expressions were assessed in macrophages incubated with only 10 µM for compounds 1, 7, and 9, and 50 µM for the other compounds, for 30 min prior to the addition of 10 ng/mL LPS for 24 h. β-actin was used as a loading control, and densitometric analysis was performed using ImageJ software (NIH, MA). Data are expressed as fold of LPS-treated macrophages and represented as mean ± SEM of 4 different experiments; * p < 0.05 versus LPS (one-way ANOVA followed by Dunnett’s test).
Macrophages were incubated with the compounds for 30 min prior to the addition of 10 ng/mL LPS for 24 h. Protein levels for COX-2 and NOS2 were detected in LPS-stimulated macrophages. As previously described, 10 µg of total protein was assessed. The primary antibodies were developed and characterized as previously described: for COX-2, mouse monoclonal antibody anti-COX-2 (clone COX-214, 1/5000); for NOS2, rabbit polyclonal antibody anti-NOS2 (dilution1/2000 [33]). Antibodies anti-phospho-NF-κB (3033S), phospho-IκBα (9246S), and total IκBα (4814S) were from Cell Signaling Technologies (Danvers, MA, USA). Total NF-κB C-20 (sc-372) was from Santa Cruz Biotechnologies (Dallas, TX, USA), and mouse β-actin (dilution 1/10,000) (Sigma-Aldrich, A5441). Clarity™ western ECL substrate (Bio-Rad Laboratories 10-5061) was used according to the manufacturer’s instructions to reveal positive bands visualized using Bio-Rad ChemiDoc. For Bcl-2 and cleaved PARP-1, HCT116 cells were plated in 6-well plates (200,000 cells per well) for 24 h, and treated with compounds 1 and 2 at 10, 25, and 50 µM for 72 h. Supernatants and cells were collected and lysed using RIPA lysis buffer containing inhibitors of protease. Western blot of Bcl-2 and cleaved PARP-1 was performed using 25 µg of total protein with a rabbit polyclonal antibody anti-Bcl-2 (1/500) (Santa Cruz Biotechnology, sc-492), rabbit polyclonal antibody anti-PARP-1 (1/1000) (Santa Cruz Biotechnology, sc-7150), and mouse anti-β-actin (dilution 1/10,000) (Sigma-Aldrich, A5441).
Densitometric analyses were performed using ImageJ software (NIH, MA, USA). The ratio of the different analyzed bands to β-actin was determined and data are represented as fold change compared to the LPS-treated cells. Percentage of viable cells for proliferation assay was determined as percentage to control (non-treated cells). For TUNEL assay, apoptotic cells were quantified, and results were expressed as percentage to positive cells (cleaved DNA) compared to control (non-treated cells). Statistical analysis was performed using one-way ANOVA, followed by Dunnett’s multiple comparisons test using GraphPad Prism software. […]

PGE2 = PGE2 release in LPS-treated macrophages (BMDM); conditions: for blocking of PGE2 formation in response to LPS: 50 µM; for blocking of PGE2 formation in response to LPS / effect on PGE2 production in response to LPS: 10 ng/mL LPS 24 h; for IC50: compounds 30 min prior to 10 ng/mL LPS for 24 h; for effect on PGE2 production in response to LPS: 10 µM for compounds 1, 7, 9, 50 µM for others
Method: as §1, §2, §3

SMILES | effect on CCL2 secretion (CCL2) | IC50 (CCL2) | effect on LPS-dependent NOS2 protein expression (NOS2 protein expression) | blocking of PGE2 formation in response to LPS (PGE2) | IC50 (PGE2; Mus musculus, Macrophage) | IC50 (PGE2) | effect on PGE2 production in response to LPS (PGE2)
COC(=O)/C=C1/Oc2ccc(Br)cc2C1(F)F [Compound 1] | moderate effect | 8000 nM | – | – | – | – | –
O=C(O)/C=C1/Oc2ccc(Br)cc2C1(F)F [Compound 2] | significant decreases | 1520 nM | inhibition | more than 50% | 1920 nM | 1910 nM | –
COC(=O)CC1(O)Oc2ccc(Br)cc2C1(F)F (centres unmarked) [Compound 8] | significant decreases | 19300 nM | – | – | 20500 nM | – | inhibited partial; also recorded: partial inhibition
O=C(O)Cc1oc2ccc(-c3ccccc3)cc2c1F [Compound 5] | – | – | no effect | – | 1920 nM | – | very potent inhibitors
C=C(C)c1ccc2oc(CC(=O)O)c(F)c2c1 [Compound 6] | – | – | no effect | – | 1120 nM | – | very potent inhibitors
O=C(O)/C=C1\Oc2ccc(Br)cc2C1(F)F [Compound 3] | significant decreases | 1500 nM | inhibition | more than 50% | 1480 nM | – | –
